Reference: patent US9359346B2, “Benzamide derivative and use thereof” (VIVOZON, INC., priority 2011, dated 2016)
Where two headings read alike, the source gives them in different places.

Columns and labels:
5HT2A = 5HT2A (Homo sapiens, UniProt P28223); assay: FLIPR calcium assay for 5HT2A target activity (transfected HEK293 cells); format: cell-based
GlyT2 = molecular target: T1, GlyT2 (Rattus norvegicus, UniProt P58295); assay: FLIPR membrane potential assay for GlyT2 target activity (T-rex-293-rGlyT2 cells); format: cell-based; conditions: for inhibition at 10 µM: read-out: GlyT2 % inhibition
T1 construct: expressed in transfected cells
T1 sequence (P58295 1-799): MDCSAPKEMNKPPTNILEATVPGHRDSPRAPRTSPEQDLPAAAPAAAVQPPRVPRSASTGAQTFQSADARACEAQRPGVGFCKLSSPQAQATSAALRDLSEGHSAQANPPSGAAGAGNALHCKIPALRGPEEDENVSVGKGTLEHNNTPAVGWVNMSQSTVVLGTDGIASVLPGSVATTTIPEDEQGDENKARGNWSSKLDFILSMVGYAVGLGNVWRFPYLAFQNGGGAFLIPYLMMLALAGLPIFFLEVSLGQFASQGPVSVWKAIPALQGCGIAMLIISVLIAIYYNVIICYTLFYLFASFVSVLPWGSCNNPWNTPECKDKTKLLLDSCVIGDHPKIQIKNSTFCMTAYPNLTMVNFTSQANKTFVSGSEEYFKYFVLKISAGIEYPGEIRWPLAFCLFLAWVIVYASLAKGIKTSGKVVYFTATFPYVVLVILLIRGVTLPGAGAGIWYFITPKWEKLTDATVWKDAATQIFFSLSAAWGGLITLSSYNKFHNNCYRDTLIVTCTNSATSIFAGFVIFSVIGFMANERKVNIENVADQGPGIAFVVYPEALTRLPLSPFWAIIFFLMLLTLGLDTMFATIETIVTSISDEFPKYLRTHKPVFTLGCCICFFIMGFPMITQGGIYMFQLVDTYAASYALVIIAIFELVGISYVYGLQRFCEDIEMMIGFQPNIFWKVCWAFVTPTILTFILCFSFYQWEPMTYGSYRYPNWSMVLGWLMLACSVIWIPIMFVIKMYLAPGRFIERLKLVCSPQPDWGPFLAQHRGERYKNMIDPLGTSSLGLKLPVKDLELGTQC
Procedure: GlyT2 (Glycine transporter type 2) is an electrogenic carrier associated with Na^+/Cl^− ion transportation, primarily distributed around the spinal cord part, and has an important role in the transfer of a pain signal in the spinal cord.
In order to identify the fact that the novel compound of the present invention has GlyT2 targeting activity, a membrane potential assay was performed. FLIPR Membrane Potential Assay is used to measure ion channel modulation caused by an increase or decrease in fluorescence signal due to variations of cellular membrane potential.
First, pcDNA4/TO vector encoding GlyT2 of the rat in HEK293 cell was transfected to prepare a stable recombinant cell line, i.e., T-rex-293-rGlyT2. A […] (Greiner #655090) coated with poly-D-lysine was prepared, and the above recombinant cells (T-rex-293-rGlyT2) were seeded at 3.2×10^4/well therein using a medium containing 15 μg/ml of tetracycline. After this, incubation was conducted at 37° C. for 48 hours under 5% CO2 conditions to express GlyT2. 10 ml of assay buffer (1×HBSS, 20 mM HEPES, pH 7.4) was added to a blue dye solution and sufficiently dissolved therein to prepare a membrane potential dye solution. After removing the medium from the well showing GlyT2 expression, the membrane potential dye solution was added to the well in an amount of 100 μl/well and incubated for 20 minutes.
According to the FLIPR Membrane Potential Assay kit's protocol, SoftMax Pro Software of FlexStation 3 software (Molecular Devices, US) was set up. An extent of GlyT2 expression was determined such that the extent of cellular membrane depolarization relative to an administered amount of glycine during glycine treatment is indicated in relative fluorescence units (RFU), and RFU (Max-Min) is calculated by subtracting the minimum value from the maximum value of RFU. After firstly treating 10 uM of the novel compound according to the present invention, glycine was treated and RFU (Max-Min) for glycine administration was determined. Then, with the determined result, the extent of depolarization inhibition (% inhibition) was assessed for each compound, compared to a positive control.
The positive control used herein was ORG25543 (500 nM) having strong inhibitory efficacy specific to GlyT2.
For GlyT2 inhibitory efficacy, the efficacy of the compound ORG25543 (500 nM) was defined as 100%. Similarly, for 5HT2A inhibitory efficacy, the efficacy of MDL11939 (100 nM) was defined as 100%. Therefore, the target inhibitory efficacy of each compound was indicated in a relative value compared to the above defined efficacy.

[1] = test system: neuropathic pain model (Chung model); assay: Neuropathic pain model (Chung model, SNL), paw withdrawal threshold; format: in vivo, rat; conditions: subcutaneous 50 mg/kg or oral 100 mg/kg; gabapentin 55 to 70 mg/kg intraperitoneal; FIGS. 1 to 22
[2] = HEK293, read-out: 5HT2A % inhibition
[3] = HEK293, 10 uM compound, then serotonin, relative to MDL11939 (100 nM) defined as 100%, read-out: 5HT2A % inhibition
[4] = 10 uM compound, then glycine, relative to ORG25543 (500 nM) defined as 100%

5HT2A, sequence (P28223 whole entry, species assumed): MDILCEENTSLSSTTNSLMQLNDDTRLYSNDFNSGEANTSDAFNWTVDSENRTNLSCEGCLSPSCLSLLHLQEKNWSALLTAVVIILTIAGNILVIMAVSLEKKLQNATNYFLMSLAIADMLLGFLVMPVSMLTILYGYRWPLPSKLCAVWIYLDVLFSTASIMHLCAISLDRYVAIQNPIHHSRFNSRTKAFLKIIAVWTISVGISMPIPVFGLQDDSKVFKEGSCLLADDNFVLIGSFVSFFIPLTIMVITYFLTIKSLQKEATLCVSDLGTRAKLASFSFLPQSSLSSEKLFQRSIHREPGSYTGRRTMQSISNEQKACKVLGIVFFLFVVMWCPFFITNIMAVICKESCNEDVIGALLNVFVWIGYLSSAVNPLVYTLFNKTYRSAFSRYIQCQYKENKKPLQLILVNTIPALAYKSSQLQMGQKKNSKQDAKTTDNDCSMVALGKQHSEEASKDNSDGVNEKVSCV

Row | Compound | inhibition at 10 µM (5HT2A; [2]) | inhibition at 10 µM (GlyT2) | inhibition at 10 µM (5HT2A; [3]) | inhibition at 10 µM (GlyT2; [4]) | further results
1 | CN1CCN(C2(CNC(=O)c3ccc(OCc4ccccc4)cc3)CCOCC2)CC1 [VVZ-072] | 101% | 59.1% | – | – | –
2 | COc1cc(C(=O)NCC2(N3CCOCC3)CCOCC2)cc(OC)c1OCc1ccccc1 [VVZ-074] | 155% | 73.5% | – | – | –
3 | Cc1cc(C(=O)NCC(c2ccccc2)N(C)C)cc(C)c1OCc1ccccc1 (centres unmarked) [VVZ-046] | 54.2% | 113% | – | – | –
4 | CN(C)C1(CNC(=O)c2ccc(OCc3ccccc3)cc2)CCOCC1 [VVZ-065] | – | – | – | – | 5HT2A % inhibition (5HT2A): 107.8%; GlyT2 % inhibition (GlyT2): 105.1%
5 | COc1cc(C(=O)NC2CCN(Cc3ccccc3)C2)cc(OC)c1OCc1ccccc1 (centres unmarked) [VVZ-013] | – | – | 48.5% | 72.9% | –
6 | COc1cc(C(=O)NCC2(N(C)C)CC=C(F)CC2)cc(OC)c1OCc1ccccc1 (centres unmarked) [VVZ-028] | 93.9% | – | – | 87.9% | –
7 | COc1cc(C(=O)NCC(=O)N2CCC(C)CC2)cc(OC)c1OCc1ccccc1 [VVZ-040] | – | – | – | – | analgesic efficacy compared to GBP positive control [1]: analgesic efficacy substantially equal to 0 °C superior to GBP
8 | Cc1cc(C(=O)NCC2(O)CCN(C)CC2)cc(C)c1OCc1ccccc1 [VVZ-054] | – | – | 57.1% | 82.9% | –
9 | CCN1CCC[C@H]1CNC(=O)c1cc(OC)c(OCc2ccccc2)c(OC)c1 [VVZ-014] | – | – | 93.6% | 75% | –
10 | CCN1CCC[C@@H]1CNC(=O)c1cc(OC)c(OCc2ccccc2)c(OC)c1 [VVZ-012] | – | – | 76.1% | 118% | –
11 | COc1cc(C(=O)NCC2(N3CCN(C)CC3)CCOCC2)cc(OC)c1OCc1ccccc1 [VVZ-071] | 60.8% | 78.8% | – | – | –
12 | CN1CCN(C2(CNC(=O)c3ccc(OCc4ccccc4)cc3)CCCCC2)CC1 [VVZ-069] | 150% | 83.9% | – | – | –
13 | Cc1cc(C(=O)NCC2(N3CCN(C)CC3)CCCCC2)cc(C)c1OCc1ccccc1 [VVZ-063] | 76.7% | 112% | – | – | –
14 | COc1cc(C(=O)NCC2(NCc3ccccc3)CCOCC2)cc(OC)c1OCc1ccccc1 [VVZ-084] | – | – | 94.4% | 79% | –
15 | COc1cc(C(=O)NCC(c2ccccc2)N2CCOCC2)cc(OC)c1OCc1ccccc1 (centres unmarked) [VVZ-018] | 70.7% | 76.8% | – | – | –
16 | COc1cc(C(=O)NCC(c2ccccc2)N(C)C)cc(OC)c1OCc1ccccc1 (centres unmarked) [VVZ-010] | – | – | – | – | 5HT2A % inhibition (5HT2A): 108.1%; GlyT2 % inhibition (GlyT2): 102.5%
17 | CCN(C)C1(CNC(=O)c2cc(OC)c(OCc3ccccc3)c(OC)c2)CC=C(F)CC1 (centres unmarked) [VVZ-050] | – | – | 108% | 117% | –
18 | COc1cc(C(=O)NCC(c2ccccc2)N2CCCC2)cc(OC)c1OCc1ccccc1 (centres unmarked) [VVZ-035] | – | – | 101% | 84.8% | –
19 | CCCCOc1c(OC)cc(C(=O)NCC2(N(C)CC)CCOCC2)cc1OC [VVZ-041] | – | – | 105% | 79.2% | analgesic efficacy compared to GBP positive control [1]: analgesic efficacy substantially equal to 0 °C superior to GBP
20 | COc1cc(C(=O)NCC(c2ccccc2)N(C)C)cc(OC)c1OCc1ccccc1 (centres unmarked) [VVZ-020] | 94.1% | 103% | – | – | –
21 | CCCCOc1c(OC)cc(C(=O)NC[C@H]2CCCN2CC)cc1OC [VVZ-029] | – | – | 71.3% | 46% | –
22 | CN(C)C(CNC(=O)c1cccc(C(F)(F)F)c1)c1ccccc1 (centres unmarked) [VVZ-078] | – | – | – | – | analgesic efficacy compared to GBP positive control [1]: analgesic efficacy substantially equal to 0 °C superior to GBP
23 | CN(C)C(CNC(=O)c1ccc(OCc2ccccc2)cc1)c1ccccc1 (centres unmarked) [VVZ-051] | 95% | 110% | – | – | –

Row | Compound | inhibition at 10 µM (5HT2A; [2]) | inhibition at 10 µM (GlyT2) | inhibition at 10 µM (5HT2A; [3]) | inhibition at 10 µM (GlyT2; [4]) | further results
24 | COc1cc(C(=O)N[C@@H]2CCN(Cc3ccccc3)C2)cc(OC)c1OCc1ccccc1 [VVZ-011] | – | – | 56.2% | 88.8% | –
25 | CCCCOc1c(C)cc(C(=O)NCC2(O)CCN(C)CC2)cc1C [VVZ-053] | – | – | 31.4% | 59.6% | –
26 | COc1cc(N)c(Cl)cc1C(=O)NCC1(O)CCN(C)CC1 [VVZ-055] | – | – | 146% | 55.3% | –
27 | CCCCOc1c(OC)cc(C(=O)NCC2(N3CCN(C)CC3)CCCCC2)cc1OC [VVZ-032] | – | – | – | – | analgesic efficacy compared to GBP positive control [1]: analgesic efficacy substantially equal to 0 °C superior to GBP
28 | CCCCOc1c(OC)cc(C(=O)Nc2nnc(C)s2)cc1OC [VVZ-025] | – | – | – | – | analgesic efficacy compared to GBP positive control [1]: analgesic efficacy substantially equal to 0 °C superior to GBP
29 | O=C(NCC1(N2CCOCC2)CCOCC1)c1ccc(OCc2ccccc2)cc1 [VVZ-076] | 113% | 50.6% | – | – | –
30 | COc1cc(C(=O)NCC2(N(C)C)CCOCC2)cc(OC)c1OCc1ccccc1 [VVZ-036] | 66.1% | 103% | – | – | –
31 | O=C(c1cccc(C(F)(F)F)c1)N1CCN(CCc2ccccc2)CC1 [VVZ-042] | – | – | 107% | 34.4% | –
32 | CCCCOc1c(OC)cc(C(=O)NCC(c2ccccc2)N(C)C)cc1OC (centres unmarked) [VVZ-033] | 97.1% | 105% | – | – | –
33 | Cc1cc(C(=O)NC(CN2CCOCC2)c2ccccc2)cc(C)c1OCc1ccccc1 (centres unmarked) [VVZ-080] | – | – | 113% | 40.6% | –
34 | COc1cc(C(=O)N[C@H]2CN3CCC2CC3)cc(OC)c1OCc1ccccc1 [VVZ-003] | – | – | 31.6% | 78.2% | –
35 | O=C(NCC(c1ccccc1)N1CCOCC1)c1ccc(OCc2ccccc2)cc1 (centres unmarked) [VVZ-081] | 71.5% | 45.3% | – | – | –
36 | CN(C)C1(CNC(=O)c2cccc(C(F)(F)F)c2)CCC(F)(F)CC1 [VVZ-062] | – | – | – | – | analgesic efficacy compared to GBP positive control [1]: analgesic efficacy substantially equal to 0 °C superior to GBP
37 | CCCCOc1ccc(C(=O)NCC(c2ccccc2)N(C)C)cc1 (centres unmarked) [VVZ-052] | 103% | 76.6% | – | – | –
38 | COc1cc(N)c(Cl)cc1C(=O)N[C@H]1CN2CCC1CC2 [VVZ-047] | – | – | 78.8% | 23.4% | –
39 | COc1cc(C(=O)NCC2(N(C)C)CCCCC2)cc(OC)c1OCc1ccccc1 [VVZ-037] | 99.8% | 100% | – | – | –
40 | COc1ccc(C(CNC(=O)c2cc(OC)c(OCc3ccccc3)c(OC)c2)N2CCCC2)cc1 (centres unmarked) [VVZ-015] | – | – | 57% | 108% | –
41 | CCCCOc1c(C)cc(C(=O)NCC(c2ccccc2)N(C)C)cc1C (centres unmarked) [VVZ-057] | 65.7% | 101% | – | – | –
42 | COc1cc(C(=O)NCC2CCCCN2C)cc(OC)c1OCc1ccccc1 (centres unmarked) [VVZ-009] | – | – | 90.4% | 117% | –
43 | COc1cc(C(=O)NCC2(N(C)C)CCC(F)(F)CC2)cc(OC)c1OCc1ccccc1 [VVZ-016] | 97.5% | 109% | – | – | –
44 | COc1cc(C(=O)NCCN2CCOCC2)cc(OC)c1OCc1ccccc1 [VVZ-006] | 89.8% | – | – | 48.9% | –
45 | Cc1cc(C(=O)NCC2(N(C)C)CCC(F)(F)CC2)cc(C)c1OCc1ccccc1 [VVZ-058] | 134% | 102% | – | – | –
